{"source": "patent US20120149900A1", "about": "“FLUORINE CONTAINING COMPOUNDS AND METHODS OF USE THEREOF” (priority 2009, published 2012)", "key": {"mu opioid receptor": {"biological_target": "mu opioid receptor (Homo sapiens, UniProt P35372)", "sequence (P35372 whole entry)": "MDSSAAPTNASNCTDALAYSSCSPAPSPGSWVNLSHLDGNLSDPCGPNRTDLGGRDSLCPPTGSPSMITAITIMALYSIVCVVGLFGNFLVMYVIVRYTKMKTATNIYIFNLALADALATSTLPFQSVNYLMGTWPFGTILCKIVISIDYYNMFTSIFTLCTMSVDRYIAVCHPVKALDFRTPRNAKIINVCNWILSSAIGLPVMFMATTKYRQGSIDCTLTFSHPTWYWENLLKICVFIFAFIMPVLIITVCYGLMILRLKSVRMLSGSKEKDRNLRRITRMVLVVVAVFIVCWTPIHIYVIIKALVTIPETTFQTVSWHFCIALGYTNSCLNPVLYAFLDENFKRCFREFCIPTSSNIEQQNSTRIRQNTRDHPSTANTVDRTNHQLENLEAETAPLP", "assay": "Cellular functional assay, mu opioid receptor", "type": "cell-based", "settings": "EC50 values were not determined"}, "[1]": {"assay": "In vivo pharmacokinetics and brain partition study", "settings": "rats, fasted, single 1 mg/kg iv dose", "description": "single 1 mg/kg iv dose administered in rats under fasted conditions plasma concentrations determined at 10 time points (2 mins -24 hrs) brain partition ratio determined at 1 and 4 hours"}, "[2]": {"biological_target": "opioid (non-selective) receptor", "assay": "Receptor binding assay, opioid (non-selective) (antagonist radioligand)", "source_text": "(§1) Receptor binding assays (Table 1 and FIGS. 1-4)"}, "kappa (KOP) receptor": {"biological_target": "T1, kappa (KOP) receptor (Rattus norvegicus, UniProt P34975)", "T1 construct": "Cerep", "T1 sequence (P34975 whole entry)": "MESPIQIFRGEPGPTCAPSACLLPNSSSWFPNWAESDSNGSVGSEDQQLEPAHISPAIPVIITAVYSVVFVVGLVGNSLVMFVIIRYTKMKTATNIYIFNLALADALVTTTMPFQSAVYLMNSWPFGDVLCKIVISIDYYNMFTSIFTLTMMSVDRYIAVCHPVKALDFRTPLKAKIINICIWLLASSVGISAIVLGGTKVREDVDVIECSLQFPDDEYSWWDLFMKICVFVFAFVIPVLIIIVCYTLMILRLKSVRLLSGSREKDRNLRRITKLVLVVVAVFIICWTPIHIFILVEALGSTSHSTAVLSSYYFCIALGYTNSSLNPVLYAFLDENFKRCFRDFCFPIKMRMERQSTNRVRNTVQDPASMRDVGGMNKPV", "assay": "Receptor binding assay, κ (KOP) (agonist radioligand)", "source_text": "as §1"}, "kappa opioid receptor": {"biological_target": "kappa opioid receptor (Homo sapiens, UniProt P41145)", "sequence (P41145 whole entry)": "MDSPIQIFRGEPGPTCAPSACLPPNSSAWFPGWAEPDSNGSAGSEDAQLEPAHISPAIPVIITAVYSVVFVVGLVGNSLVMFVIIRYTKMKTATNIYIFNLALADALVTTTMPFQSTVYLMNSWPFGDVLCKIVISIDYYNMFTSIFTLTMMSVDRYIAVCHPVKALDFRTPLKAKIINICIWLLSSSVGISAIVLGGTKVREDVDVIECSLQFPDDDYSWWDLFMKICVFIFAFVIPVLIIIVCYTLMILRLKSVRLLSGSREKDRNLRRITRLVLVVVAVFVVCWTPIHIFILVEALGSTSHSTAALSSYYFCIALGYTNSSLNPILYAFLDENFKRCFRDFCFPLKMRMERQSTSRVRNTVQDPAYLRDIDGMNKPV", "assay": "Cellular functional assay, kappa opioid receptor", "type": "cell-based", "settings": "EC50 values were not determined"}, "human mu (MOP) receptor": {"biological_target": "T2, human mu (MOP) receptor (Homo sapiens, UniProt P35372)", "T2 construct": "Cerep", "T2 sequence (P35372 whole entry)": "as the sequence (P35372 whole entry) above", "assay": "Receptor binding assay, μ (MOP) (h) (agonist radioligand)", "source_text": "as §1"}, "[3]": {"biological_target": "T3, human delta 2 (DOP) receptor (Homo sapiens, UniProt P41143)", "T3 construct": "Cerep", "T3 sequence (P41143 whole entry)": "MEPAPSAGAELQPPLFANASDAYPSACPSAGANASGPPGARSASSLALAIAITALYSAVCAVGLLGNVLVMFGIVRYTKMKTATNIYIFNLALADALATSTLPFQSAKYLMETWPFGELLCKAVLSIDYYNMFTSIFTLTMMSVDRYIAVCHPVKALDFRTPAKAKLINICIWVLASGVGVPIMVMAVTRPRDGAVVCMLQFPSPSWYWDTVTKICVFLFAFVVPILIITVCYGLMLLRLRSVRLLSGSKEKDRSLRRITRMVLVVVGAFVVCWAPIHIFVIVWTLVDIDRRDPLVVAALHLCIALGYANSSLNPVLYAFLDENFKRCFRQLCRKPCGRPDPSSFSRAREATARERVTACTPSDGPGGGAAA", "assay": "Receptor binding assay, δ2 (DOP) (h) (agonist radioligand)", "source_text": "as §1"}}, "note": "Entries after “also recorded” stand apart in the source; their conditions may differ.", "data": [{"smiles": "CN1CC[C@]23c4c5ccc(F)c4O[C@H]2[C@@H](O)C=C[C@H]3[C@H]1C5", "note": "[F-morphine]", "values": [{"measurement": "function at mu opioid receptor", "setting": "mu opioid receptor", "result": "agonist"}, {"measurement": "Kp at 4 h", "setting": "[1]; rat, brain/plasma, at 1 and 4 hours, read-out: brain/plasma ratio", "result": "2 to 3"}, {"measurement": "brain partition (in words)", "setting": "[1]", "result": "partitions well into the brain"}, {"measurement": "IC50", "setting": "[2]", "result": 800, "unit": "nM"}, {"measurement": "Ki", "setting": "[2]", "result": 580, "unit": "nM"}, {"measurement": "IC50", "setting": "kappa (KOP) receptor", "result": 8500, "unit": "nM"}, {"measurement": "Ki", "setting": "kappa (KOP) receptor", "result": 5600, "unit": "nM"}, {"measurement": "nH", "setting": "kappa (KOP) receptor; agonist radioligand", "result": 1.1}, {"measurement": "function at kappa opioid receptor", "setting": "kappa opioid receptor", "result": "agonist"}, {"measurement": "IC50", "setting": "human mu (MOP) receptor", "result": 370, "unit": "nM"}, {"measurement": "Ki", "setting": "human mu (MOP) receptor", "result": 150, "unit": "nM"}, {"measurement": "nH", "setting": "human mu (MOP) receptor; agonist radioligand", "result": 0.9}, {"measurement": "Delta: binding", "setting": "[3]", "result": "no observed binding; also recorded: no significant binding up to 10 uM"}, {"measurement": "IC50", "setting": "[3]", "result": "> 10000", "unit": "nM"}]}]}
